Counter-ions that a name gives are not always drawn.
Tested on: mice
Experiment: antidepressive activity, antagonism to ptosis after intravenous injection of reserpine
Assay type: in vivo
Settings: Mus musculus, ip, 1 h, i.p., ptosis observed an hour after i.v. reserpine 2 mg/kg, read-out: ED 50 antidepressive property
Description: GOURET and J. THOMAS in J. Pharmacol. (Paris) (1973), 4, 401.

Question: For `COc1ccc2c(c1)C(c1ccccc1)=NC(CN1CCN(C)CC1)C2` (stereo not shown) [compound 100], which ED50 is on record?
Answer: 9 mg/kg

Question: With `Cc1ccc2c(c1)C(c1ccccc1)=NC(CN(C)C)C2` (stereo not shown) [compound 12] as the compound, how does the ED50 read?
Answer: 15 mg/kg

Question: Which ED50 does the source give for `COc1ccccc1C1=NC(CCN(C)C)Cc2ccccc21` (stereo not shown) [compound 28] here?
Answer: 3 mg/kg

Question: Which ED50 does the source give for `CN(C)CCC1Cc2ccccc2C(c2ccc(F)cc2)=N1` (stereo not shown) [compound 24] here?
Answer: 2.1 mg/kg

Question: Which ED50 does the source give for `CN(C)CC1COc2ccccc2C(c2ccccc2Cl)=N1` (stereo not shown) [compound 42] here?
Answer: 7 mg/kg

Question: Which ED50 does the source give for `CN(C)CC1C=C(c2ccccc2)c2ccccc2C1` (stereo not shown) [Code Number 1, 3-Dimethylaminomethyl 1-phenyl 3,4-dihydro naphthalene, oxalate] here?
Answer: 10 mg/kg

Question: For `Cc1cccc(C2=NC(CCN(C)C)Cc3ccccc32)c1` (stereo not shown) [compound 32], which ED50 is on record?
Answer: 6.6 mg/kg

Question: With `CN(C)CC1COc2ccccc2C(c2ccccc2F)=N1` (stereo not shown) [compound 41] as the compound, how does the ED50 read?
Answer: 3.5 mg/kg

Question: Which ED50 does the source give for `CN(C)CCC1Cc2ccccc2C(C2CCCCC2)=N1` (stereo not shown) [compound 37] here?
Answer: 10 mg/kg

Question: Which ED50 does the source give for `CN(C)CCC1Cc2ccccc2C(c2ccccc2F)=N1` (stereo not shown) [compound 22] here?
Answer: 0.6 mg/kg

Question: Which ED50 does the source give for `CN(C)CC1COc2ccccc2C(c2ccc(Cl)cc2)=N1` (stereo not shown) [compound 44] here?
Answer: 10 mg/kg

Question: With `CN(C)CCC1COc2ccccc2C(c2ccccc2)=N1` (stereo not shown) [compound 45] as the compound, how does the ED50 read?
Answer: 12 mg/kg

Question: Which ED50 does the source give for `CN(C)CCC1Cc2ccccc2C(c2ccc(Cl)cc2)=N1` (stereo not shown) [compound 27] here?
Answer: 4.4 mg/kg

Question: Which ED50 does the source give for `CN(C)CCC1Cc2ccccc2C(c2cccc(Cl)c2)=N1` (stereo not shown) [compound 26] here?
Answer: 5.4 mg/kg

Question: With `CN(C)CCCC1Cc2ccccc2C(c2ccccc2F)=N1` (stereo not shown) [compound 39] as the compound, how does the ED50 read?
Answer: 0.7 mg/kg

Question: For `COc1cc2c(cc1OC)C(c1ccccc1)=NC(CCN(C)C)C2` (stereo not shown) [compound 105], which ED50 is on record?
Answer: 30 mg/kg

Question: For `CN(C)CCC1Cc2ccccc2C(c2ccccc2Cl)=N1` (stereo not shown) [compound 25], which ED50 is on record?
Answer: 3.7 mg/kg

Tested on: not listed separately
Experiment: acute toxicity (LD 50)
Settings: in vivo, ip
Description: To illustrate the invention, there are shown in table IV below, the results obtained in these two tests and the acute toxicity (LD 50) of some compounds of formula (I).

Question: Which LD50 does the source give for `COc1ccc2c(c1)C(c1ccccc1)=NC(CN(C)C)C2` (stereo not shown) [compound 13] here?
Answer: 65 mg/kg

Question: With `Cc1ccc2c(c1)C(c1ccccc1)=NC(CN1CCCCC1)C2` (stereo not shown) [compound 97] as the compound, how does the LD50 read?
Answer: 52 mg/kg

Question: Which LD50 does the source give for `CN1CCN(CC2Cc3c(Cl)cccc3C(c3ccccc3)=N2)CC1` (stereo not shown) [compound 94] here?
Answer: 140 mg/kg

Question: With `Cc1ccc2c(c1)C(c1ccccc1)=NC(CN1CCOCC1)C2` (stereo not shown) [compound 98] as the compound, how does the LD50 read?
Answer: 125 mg/kg

Question: Which LD50 does the source give for `CN(C)CCC1Cc2c(Cl)cccc2C(c2ccccc2)=N1` (stereo not shown) [compound 18] here?
Answer: 70 mg/kg

Question: For `CN(C)CC1COc2ccccc2C(c2ccccc2)=N1` (stereo not shown) [compound 40], which LD50 is on record?
Answer: 80 mg/kg

Question: For `COc1ccc2c(c1)C(c1ccccc1)=NC(CN1CCN(C)CC1)C2` (stereo not shown) [compound 100], which LD50 is on record?
Answer: 140 mg/kg

Question: Which LD50 does the source give for `Cc1ccc2c(c1)C(c1ccccc1)=NC(CN(C)C)C2` (stereo not shown) [compound 12] here?
Answer: 50 mg/kg

Question: For `COc1ccccc1C1=NC(CCN(C)C)Cc2ccccc21` (stereo not shown) [compound 28], which LD50 is on record?
Answer: 42 mg/kg

Question: For `CCN(CC)CC1Cc2ccc(C)cc2C(c2ccccc2)=N1` (stereo not shown) [compound 95], which LD50 is on record?
Answer: 45 mg/kg

Question: With `CN(C)CCC1Cc2ccccc2C(c2ccc(F)cc2)=N1` (stereo not shown) [compound 24] as the compound, how does the LD50 read?
Answer: 61 mg/kg

Question: For `CN(C)CC1COc2ccccc2C(c2ccccc2Cl)=N1` (stereo not shown) [compound 42], which LD50 is on record?
Answer: 70 mg/kg

Question: For `CN(C)CC1C=C(c2ccccc2)c2ccccc2C1` (stereo not shown) [Code Number 1, 3-Dimethylaminomethyl 1-phenyl 3,4-dihydro naphthalene, oxalate], which LD50 is on record?
Answer: 62 mg/kg

Question: For `COc1cc2c(cc1OC)C(c1ccccc1)=NC(CN(C)C)C2` (stereo not shown) [compound 14], which LD50 is on record?
Answer: 135 mg/kg

Question: With `Cc1cccc(C2=NC(CCN(C)C)Cc3ccccc32)c1` (stereo not shown) [compound 32] as the compound, how does the LD50 read?
Answer: 67 mg/kg

Question: Which LD50 does the source give for `CN(C)CC1COc2ccccc2C(c2ccccc2F)=N1` (stereo not shown) [compound 41] here?
Answer: 62 mg/kg

Question: Which LD50 does the source give for `CN(C)CCC1Cc2ccccc2C(C2CCCCC2)=N1` (stereo not shown) [compound 37] here?
Answer: 82 mg/kg

Question: For `CN(C)CCC1Cc2ccccc2C(c2ccccc2F)=N1` (stereo not shown) [compound 22], which LD50 is on record?
Answer: 70 mg/kg

Question: With `CN(C)CC1COc2ccccc2C(c2ccc(Cl)cc2)=N1` (stereo not shown) [compound 44] as the compound, how does the LD50 read?
Answer: 130 mg/kg

Question: Which LD50 does the source give for `CN(C)CCC1COc2ccccc2C(c2ccccc2)=N1` (stereo not shown) [compound 45] here?
Answer: 160 mg/kg

Question: With `Cc1ccc2c(c1)C(c1ccccc1)=NC(CN1CCN(C)CC1)C2` (stereo not shown) [compound 99] as the compound, how does the LD50 read?
Answer: 130 mg/kg

Question: With `CN(C)CCC1Cc2ccccc2C(c2ccc(Cl)cc2)=N1` (stereo not shown) [compound 27] as the compound, how does the LD50 read?
Answer: 70 mg/kg

Question: For `CN(C)CCC1Cc2ccccc2C(c2cccc(Cl)c2)=N1` (stereo not shown) [compound 26], which LD50 is on record?
Answer: 65 mg/kg

Question: For `CN(C)CCCC1Cc2ccccc2C(c2ccccc2F)=N1` (stereo not shown) [compound 39], which LD50 is on record?
Answer: 100 mg/kg

Question: Which LD50 does the source give for `CN(C)CCC1Cc2ccccc2C(c2cccc(C(F)(F)F)c2)=N1` (stereo not shown) [compound 104] here?
Answer: 62 mg/kg

Question: For `CN1CCN(CCC2Cc3c(Cl)cccc3C(c3ccccc3)=N2)CC1` (stereo not shown) [compound 106], which LD50 is on record?
Answer: 145 mg/kg

Question: Which LD50 does the source give for `COc1cc2c(cc1OC)C(c1ccccc1)=NC(CCN(C)C)C2` (stereo not shown) [compound 105] here?
Answer: 165 mg/kg

Question: With `CN(C)CCC1Cc2ccccc2C(c2ccccc2Cl)=N1` (stereo not shown) [compound 25] as the compound, how does the LD50 read?
Answer: 60 mg/kg

Tested on: mice
Experiment: analgesic activity, phenylbenzoquinone test (E. SIEGMUND)
Assay type: in vivo
Settings: Mus musculus, ip, read-out: ED 50 analgesic property
Description: Soc. Exp. Biol. and Med. 95, 729, (1957).

Question: Which ED50 does the source give for `COc1ccc2c(c1)C(c1ccccc1)=NC(CN(C)C)C2` (stereo not shown) [compound 13] here?
Answer: 3 mg/kg

Question: Which ED50 does the source give for `Cc1ccc2c(c1)C(c1ccccc1)=NC(CN1CCCCC1)C2` (stereo not shown) [compound 97] here?
Answer: 10 mg/kg

Question: Which ED50 does the source give for `CN1CCN(CC2Cc3c(Cl)cccc3C(c3ccccc3)=N2)CC1` (stereo not shown) [compound 94] here?
Answer: 22 mg/kg

Question: With `Cc1ccc2c(c1)C(c1ccccc1)=NC(CN1CCOCC1)C2` (stereo not shown) [compound 98] as the compound, how does the ED50 read?
Answer: 30 mg/kg

Question: For `CN(C)CCC1Cc2c(Cl)cccc2C(c2ccccc2)=N1` (stereo not shown) [compound 18], which ED50 is on record?
Answer: 1 mg/kg

Question: For `CN(C)CC1COc2ccccc2C(c2ccccc2)=N1` (stereo not shown) [compound 40], which ED50 is on record?
Answer: 3 mg/kg

Question: With `COc1ccc2c(c1)C(c1ccccc1)=NC(CN1CCN(C)CC1)C2` (stereo not shown) [compound 100] as the compound, how does the ED50 read?
Answer: 30 mg/kg

Question: For `Cc1ccc2c(c1)C(c1ccccc1)=NC(CN(C)C)C2` (stereo not shown) [compound 12], which ED50 is on record?
Answer: 5 mg/kg

Question: For `COc1ccccc1C1=NC(CCN(C)C)Cc2ccccc21` (stereo not shown) [compound 28], which ED50 is on record?
Answer: 10 mg/kg

Question: With `CCN(CC)CC1Cc2ccc(C)cc2C(c2ccccc2)=N1` (stereo not shown) [compound 95] as the compound, how does the ED50 read?
Answer: 10 mg/kg

Question: Which ED50 does the source give for `CN(C)CCC1Cc2ccccc2C(c2ccc(F)cc2)=N1` (stereo not shown) [compound 24] here?
Answer: 8.4 mg/kg

Question: Which ED50 does the source give for `CN(C)CC1COc2ccccc2C(c2ccccc2Cl)=N1` (stereo not shown) [compound 42] here?
Answer: 3.5 mg/kg

Question: For `CN(C)CC1C=C(c2ccccc2)c2ccccc2C1` (stereo not shown) [Code Number 1, 3-Dimethylaminomethyl 1-phenyl 3,4-dihydro naphthalene, oxalate], which ED50 is on record?
Answer: 6 mg/kg

Question: Which ED50 does the source give for `COc1cc2c(cc1OC)C(c1ccccc1)=NC(CN(C)C)C2` (stereo not shown) [compound 14] here?
Answer: 15 mg/kg

Question: Which ED50 does the source give for `Cc1cccc(C2=NC(CCN(C)C)Cc3ccccc32)c1` (stereo not shown) [compound 32] here?
Answer: 6.6 mg/kg

Question: Which ED50 does the source give for `CN(C)CC1COc2ccccc2C(c2ccccc2F)=N1` (stereo not shown) [compound 41] here?
Answer: 7.2 mg/kg

Question: With `CN(C)CCC1Cc2ccccc2C(C2CCCCC2)=N1` (stereo not shown) [compound 37] as the compound, how does the ED50 read?
Answer: 10 mg/kg

Question: With `CN(C)CCC1Cc2ccccc2C(c2ccccc2F)=N1` (stereo not shown) [compound 22] as the compound, how does the ED50 read?
Answer: 6.2 mg/kg

Question: With `CN(C)CC1COc2ccccc2C(c2ccc(Cl)cc2)=N1` (stereo not shown) [compound 44] as the compound, how does the ED50 read?
Answer: 9.8 mg/kg

Question: With `CN(C)CCC1COc2ccccc2C(c2ccccc2)=N1` (stereo not shown) [compound 45] as the compound, how does the ED50 read?
Answer: 16.5 mg/kg

Question: Which ED50 does the source give for `Cc1ccc2c(c1)C(c1ccccc1)=NC(CN1CCN(C)CC1)C2` (stereo not shown) [compound 99] here?
Answer: 30 mg/kg

Question: With `CN(C)CCC1Cc2ccccc2C(c2ccc(Cl)cc2)=N1` (stereo not shown) [compound 27] as the compound, how does the ED50 read?
Answer: 11 mg/kg

Question: For `CN(C)CCC1Cc2ccccc2C(c2cccc(Cl)c2)=N1` (stereo not shown) [compound 26], which ED50 is on record?
Answer: 7.6 mg/kg

Question: Which ED50 does the source give for `CN(C)CCCC1Cc2ccccc2C(c2ccccc2F)=N1` (stereo not shown) [compound 39] here?
Answer: 1.9 mg/kg

Question: For `CN(C)CCC1Cc2ccccc2C(c2cccc(C(F)(F)F)c2)=N1` (stereo not shown) [compound 104], which ED50 is on record?
Answer: 4.3 mg/kg

Question: With `CN1CCN(CCC2Cc3c(Cl)cccc3C(c3ccccc3)=N2)CC1` (stereo not shown) [compound 106] as the compound, how does the ED50 read?
Answer: 12 mg/kg

Question: For `COc1cc2c(cc1OC)C(c1ccccc1)=NC(CCN(C)C)C2` (stereo not shown) [compound 105], which ED50 is on record?
Answer: 12 mg/kg

Question: Which ED50 does the source give for `CN(C)CCC1Cc2ccccc2C(c2ccccc2Cl)=N1` (stereo not shown) [compound 25] here?
Answer: 3.8 mg/kg
